One may read the pA2 as a measure of antagonist potency on a negative log scale. As a reminder, the EC50 is the concentration at which the effect is half-maximal.

This is an account of results in PMC6382835, “A critical evaluation of TRPA1-mediated locomotor behavior in zebrafish as a screening tool for novel anti-nociceptive drug discovery” (Scientific Reports, 2019).

The target of this experiment is T1, zebrafish TRPA1b (zTRPA1b) (Danio rerio, UniProt A0A8M1N2Z4).
T1 sequence (A0A8M1N2Z4 1-1120): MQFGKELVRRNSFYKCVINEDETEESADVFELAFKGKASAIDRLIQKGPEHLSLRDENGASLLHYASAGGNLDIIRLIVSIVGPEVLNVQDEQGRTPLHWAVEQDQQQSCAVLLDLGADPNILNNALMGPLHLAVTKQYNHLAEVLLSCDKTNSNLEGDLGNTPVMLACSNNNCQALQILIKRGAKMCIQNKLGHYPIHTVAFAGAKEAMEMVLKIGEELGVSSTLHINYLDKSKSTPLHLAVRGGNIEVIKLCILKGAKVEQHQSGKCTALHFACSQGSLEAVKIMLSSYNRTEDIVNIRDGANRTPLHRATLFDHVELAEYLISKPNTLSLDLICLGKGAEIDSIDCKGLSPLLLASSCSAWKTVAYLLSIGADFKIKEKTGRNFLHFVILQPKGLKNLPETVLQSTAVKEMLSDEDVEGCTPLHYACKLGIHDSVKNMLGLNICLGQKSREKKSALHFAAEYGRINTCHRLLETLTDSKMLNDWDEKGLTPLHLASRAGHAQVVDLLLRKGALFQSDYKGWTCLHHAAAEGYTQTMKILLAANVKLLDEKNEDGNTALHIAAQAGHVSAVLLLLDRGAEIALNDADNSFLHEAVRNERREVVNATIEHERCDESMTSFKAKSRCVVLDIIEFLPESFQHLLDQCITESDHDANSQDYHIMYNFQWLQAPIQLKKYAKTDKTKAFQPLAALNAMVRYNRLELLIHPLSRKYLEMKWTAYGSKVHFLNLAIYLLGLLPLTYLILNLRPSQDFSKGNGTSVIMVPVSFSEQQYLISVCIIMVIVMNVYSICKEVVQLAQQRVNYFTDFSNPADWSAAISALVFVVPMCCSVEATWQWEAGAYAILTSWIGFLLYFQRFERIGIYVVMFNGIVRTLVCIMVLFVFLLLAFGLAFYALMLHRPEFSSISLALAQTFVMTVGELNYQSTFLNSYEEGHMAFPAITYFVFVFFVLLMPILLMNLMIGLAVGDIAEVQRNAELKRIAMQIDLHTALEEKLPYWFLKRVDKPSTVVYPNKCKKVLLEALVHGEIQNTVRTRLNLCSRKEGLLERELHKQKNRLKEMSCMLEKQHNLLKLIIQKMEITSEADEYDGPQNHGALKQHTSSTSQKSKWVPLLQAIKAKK
The experiment in a line: FLIPR calcium signaling assay in zTRPA1b-transfected HEK293 cells. The class given is cell-based. The settings on record: for EC50: agonist calcium influx, zTRPA1b-transfected HEK293, read-out: EC50 (potency in µM). As to the method:
The cells were maintained in a 37 °C incubator with consistent 5% CO2. […] Experiments were carried out with the approval of the Institutional Biohazard Committee (#13-013-16).
Twenty-five µl calcium sensitive Fluorescent Imaging Plate Reader (FLIPR) Calcium 6 assay dye (#R8190, Molecular Devices, CA, USA) was added to each well of a 384-well plate containing HEK293 cells transiently expressing mTRPA1, zTRPA1a, and zTRPA1b, respectively. The cells were incubated for an hour prior to the recording of intracellular calcium levels in a FlexStation3 Multi-Mode Microplate Reader (#R8190, Molecular Devices) as previously described. […] During the assay, the cells were challenged by a 5x ASP7663 solution or 1% DMSO solution at the 20 seconds time point, and both solutions were diluted in calcium buffer. Relative fluorescence units (RFU) were measured for 120 seconds period by the Flexstation. […] For each specific antagonist concentration we plotted Log(dose ratio-1) against the antagonist concentration in a Schild plot. The dose ratio (A’/A) equals the EC50 of the agonist (ASP7665) in the presence of a concentration of the antagonist (A’) divided by the EC50 of the agonist in the absence of antagonist (A). The x-intercept of the Schild plot was used to identify the antagonist-receptor affinity (pA2).
All data are presented as means ± standard error of the mean (SEM). For our in vitro statistical analysis, AUC of calcium influx (RFU) was measured to plot dose-response curves, which were further analyzed by nonlinear regression analysis. Mean RFU of the first 10 seconds was used as a baseline of the AUC. EC50 values of the dose-response curves were further used to plot Schild curves, and the curves were analyzed with linear regression analysis. For the mice von Frey test, mechanical thresholds were analyzed with two-way ANOVA followed by a Bonferonni test for multiple comparison analysis. For the zebrafish behavior test, the data from the first five seconds following drug administration were excluded, as zebrafish displacement during that period was highly influenced by liquid dispensing. AUC of all curves were measured and analyzed by one-way ANOVA. The post-hoc analysis was conducted with the Tukey’s or Dunnett’s multiple comparisons unless it stated otherwise. […] For our time-course average displacement graph, we used 2nd degree polynomial smoothing for a better representation; however, we used data before smoothing for all statistical analysis and quantification. All in vitro and in vivo data were evaluated using GraphPad Prism 7 (GraphPad Software, La Jolla, CA) unless it stated otherwise.

As for `CC(C)c1ccc(NC(=O)Cn2cnc3c2c(=O)n(C)c(=O)n3C)cc1` [HC-030031], the “calcium influx by antagonist alone” value (316 µM, zTRPA1b-transfected cells) was “could produce an influx of intracellular calcium”. Also, the “pA2 expressed in µM” value (Schild plot against ASP7663-mediated calcium influx, zTRPA1b) came to 27.1 µM. Besides, the pA2 (Schild plot against ASP7663-mediated calcium influx, zTRPA1b, only two antagonist doses) is 4.6 ± 0.3. For the same compound, the Schild slope (zTRPA1b, n = 2) stood at 0.83 ± 0.05.
For `CC(C)CN1C(=O)/C(=C/C(=O)O)c2cccc(F)c21` [ASP7663], the EC50 amounted to 99 µM.
On the same count and under the same terms, next, `C=CCN=C=S` [AITC, allyl isothiocyanate]: 35.4 µM.
